Experiments:
[1] = Solid state stability of crystalline form-M at various conditions (stress, UV light, thermal, humidity); type: physicochemical
Description: The crystalline form-M of the present invention is stable at various conditions viz.,
a) Stress (10 ton pressure, 3 min) b) UV light (254 nm, 24 hrs) c) Thermal (60° C., 24 hrs) d) Hygroscopicity (75% RH, 24 hrs))

[2] = Hygroscopicity of crystalline form-M; type: physicochemical
Description: The crystalline form-M of compound of formula-1 of the present invention is non-hygroscopic in nature which is highly advantageous for the formulators.

SMILES: CCOc1cc([C@@H](CS(C)(=O)=O)N2C(=O)c3cccc(NC(C)=O)c3C2=O)ccc1OC [crystalline form-M, N-[2-[(1S)-1-(3-ethoxy-4-methoxyphenyl)-2-(methylsulfonyl)ethyl]-2,3-dihydro-1,3-dioxo-1H-isoindol-4-yl]acetamide]
- stability under hygroscopicity condition ([1]; Hygroscopicity (75% RH, 24 hrs)): stable
- stability under stress ([1]; Stress (10 ton pressure, 3 min)): stable
- thermal stability ([1]; Thermal (60° C., 24 hrs)): stable
- stability under UV light ([1]; UV light (254 nm, 24 hrs)): stable
- hygroscopic nature [2]: non-hygroscopic

Source: patent US20200109114A1, “SOLID STATE FORMS OF N-[2-[(I S)-1 -(3-ETHOXY-4-METHOXYPHENYL)-2-(METHYL SULFONYL)ETHYL]-2,3-DIHYDRO-1,3-DIOXO-L H-ISOINDOL-4-YL]ACETAMIDE AND PROCESS FOR PREPARATION THEREOF” (MSN LABORATORIES PRIVATE LIMITED, R&D CENTER, priority 2016, published 2020)
